Earlier results, collected in patent US20040204467A1, “Use of 5HT3-receptor-antagonists” (priority 1998, published 2004).

Assays:
patients with CFS = settings: after an acute application on patients with CFS
CFS patients = settings: daily dose of 20 mg; also in patients with accompanying symptoms of depression

SMILES | rise of prolactin in the serum (patients with CFS) | result of treatment of CFS (CFS patients)
CCN[C@@H](C)Cc1cccc(C(F)(F)F)c1 [D-Feufluoroamin] | significantly increased rise of prolactin | –
CNCCC(Oc1ccc(C(F)(F)F)cc1)c1ccccc1 (centres unmarked) [fluoxetin] | – | negative in result
